# Data taken from patent US20250210201A1 (priority 2022, published 2025).
# How the values were obtained:
# [1] = biological target: T1, complex II (Rattus norvegicus, UniProt P21913+Q641Z9+Q6PCT8+Q920L2); settings: rat PD model; Jiang X et al. 2016; cited from earlier work
# T1 construct: host or cells: rat PD model
# [2] = test system: primary skin fibroblasts; settings: uncoupler as positive control (50 μM per method), 30 minutes
# Method: Primary skin fibroblasts (10,000 cells per well) were seeded into Cell Carrier Ultra 96-well plates. The next day, fibroblast medium was removed and replaced by FBS-deprived DMEM containing 100 nM Tetramethylrhodamine, Ethyl Ester, Perchlorate (TMRE), a fluorescent dye that specifically accumulates in active, polarized mitochondria, or vehicle only (DMSO). The mitochondrial OXPHOS (OXPHOS-mito) uncoupler carbonyl cyanide m-chlorophenyl hydrazone (CCCP) was used—at the concentration of 50 μM—as a positive control of TMRE staining. Nuclei were stained with 1 μg/ml Hoechst 33342. Cells were incubated in the dark at 37° C. for 30 minutes before proceeding with high-throughput automated confocal microscopy analysis. Z-stack images were acquired at 20× magnification using the CellVoyager CV8000 High-Content Screening System.
# An in-house Matlab image processing pipeline was used to quantify TMRE signal. The mitochondria channel was sum-projected on the x-y plane and preprocessed using a DoG filter of 33 pixel side-length, and sigmas set to 1 and 1.5 pixels, prior to thresholding (>10). Connected components with less than 6 pixels were removed from mitochondrial analysis. Total mitochondrial TMRE fluorescence intensity per field was normalized to nuclear area. […] Nine fields per well and at least two wells per condition were assessed for each of the three independent biological replicates.
# [3] = test system: mitochondiral complex I, II and IV; settings: Kumar M et al. 2020; worded as 'proposed'; cited from earlier work
# [4] = test system: Complex I; settings: rat model; Amarsanaa K et al. 2021; cited from earlier work
# T1 sequence (Q920L2 35-656): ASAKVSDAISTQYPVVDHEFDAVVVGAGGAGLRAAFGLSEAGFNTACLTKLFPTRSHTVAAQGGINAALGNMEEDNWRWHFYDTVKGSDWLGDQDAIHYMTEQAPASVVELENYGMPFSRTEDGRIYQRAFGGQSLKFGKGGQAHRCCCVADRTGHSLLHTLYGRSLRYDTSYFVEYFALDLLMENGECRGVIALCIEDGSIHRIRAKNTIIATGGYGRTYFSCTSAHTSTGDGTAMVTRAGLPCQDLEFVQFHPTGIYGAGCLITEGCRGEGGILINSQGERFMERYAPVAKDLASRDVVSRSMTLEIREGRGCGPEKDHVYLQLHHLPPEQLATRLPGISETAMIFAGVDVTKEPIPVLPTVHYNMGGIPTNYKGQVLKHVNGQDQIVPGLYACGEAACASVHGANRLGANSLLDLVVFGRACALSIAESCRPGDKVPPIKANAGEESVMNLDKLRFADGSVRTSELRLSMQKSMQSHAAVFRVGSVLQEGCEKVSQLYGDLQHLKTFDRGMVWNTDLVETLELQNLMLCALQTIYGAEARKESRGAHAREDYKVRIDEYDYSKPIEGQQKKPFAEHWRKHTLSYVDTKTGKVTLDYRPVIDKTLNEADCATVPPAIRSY
# T1 sequence (P21913 31-282): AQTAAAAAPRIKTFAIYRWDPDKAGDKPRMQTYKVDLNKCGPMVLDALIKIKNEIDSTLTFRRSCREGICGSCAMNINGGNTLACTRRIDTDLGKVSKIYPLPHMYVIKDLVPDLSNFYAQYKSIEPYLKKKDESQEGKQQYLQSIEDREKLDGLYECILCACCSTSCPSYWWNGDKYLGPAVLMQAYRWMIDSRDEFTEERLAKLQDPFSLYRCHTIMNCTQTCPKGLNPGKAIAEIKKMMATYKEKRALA
# T1 sequence (Q641Z9 1-169): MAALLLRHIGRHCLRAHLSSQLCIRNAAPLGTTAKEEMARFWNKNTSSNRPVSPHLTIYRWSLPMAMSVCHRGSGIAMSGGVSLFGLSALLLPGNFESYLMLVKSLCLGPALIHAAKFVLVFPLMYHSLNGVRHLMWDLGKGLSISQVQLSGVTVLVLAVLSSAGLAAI
# T1 sequence (Q6PCT8 57-159): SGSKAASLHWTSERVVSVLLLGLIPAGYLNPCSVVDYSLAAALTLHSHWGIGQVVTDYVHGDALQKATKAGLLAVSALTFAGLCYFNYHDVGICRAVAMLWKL
smiles,measurement,setting,value
"COc1ccc(Cn2cc(-c3cc(C(F)(F)F)nc(S(C)(=O)=O)n3)ccc2=O)cc1OC [Compound A, 1-(3,4-dimethoxybenzyl)-5-(2-(methylsulfonyl)-6-(trifluoromethyl)pyrimidin-4-yl) pyridin-2 (1H)]",dopaminergic neurons' death,[1],preventing dopaminergic neurons' death
"N#CC(C#N)=NNc1ccc(OC(F)(F)F)cc1 [FCCP, carbonyl cyanide p-trifluoromethoxyphenyl hydrazone]","TMRE fluorescence (mitochondrial membrane potential, Δψm)",[2],robust reduction of TMRE fluorescence
[Na+].[SH-] [NaHS],"complex I, II and IV mediated oxygen consumption rate",[3],"increasing mitochondiral complex I, II and IV mediated oxygen consumption rate"
"COc1ccc(-c2cc(=O)c3c(OC)c(OC)c(OC)c(OC)c3o2)cc1OC [Nobiletin, 5,6,7,8,3′,4′-hexamethoxyflavone]",activity of complex I,[4],restore activity of complex I
